Test results: US8952024B2, “Herbicidal pyrimidone derivatives” (E I du Pont de Nemours and Company, priority 2009, dated 2015)

Assays:
Experiment in all cases: Test D pre-/postemergence plant response
Format in all cases: in vivo
[1] = system: Surinam grass (Brachiaria decumbens); conditions: Postemergence
Procedure, shortened: (§1)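 Both preemergence and postemergence treatments were made at the same time, with the compound in a non-phytotoxic, surfactant-containing solvent mixture. Plants grew in a greenhouse for 14–21 days before visual evaluation, scored from 0 (no effect) to 100 (complete control).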

[2] = system: bermudagrass (Cynodon dactylon); conditions: Postemergence, scale 0 to 100 (0 no effect, 100 complete control)
Procedure, shortened: as §1

[3] = system: black mustard (Brassica nigra); conditions: Postemergence, scale 0 to 100 (0 no effect, 100 complete control)
Procedure, shortened: as §1

[4] = system: bluegrass (annual bluegrass, Poa annua); conditions: Postemergence, scale 0 to 100 (0 no effect, 100 complete control)
Procedure, shortened: as §1

[5] = system: dayflower (Virginia (VA) dayflower, Commelina virginica); conditions: Postemergence
Procedure, shortened: as §1

[6] = system: field bindweed (Convolvulus arvensis); conditions: Postemergence
Procedure, shortened: as §1

[7] = system: goosegrass (Eleusine indica); conditions: Postemergence
Procedure, shortened: as §1

[8] = system: green foxtail (Setaria viridis); conditions: Postemergence
Procedure, shortened: as §1

[9] = system: groundsel (common groundsel, Senecio vulgaris); conditions: Postemergence
Procedure, shortened: as §1

[10] = system: itchgrass (Rottboellia cochinchinensis); conditions: Postemergence
Procedure, shortened: as §1

[11] = system: large crabgrass (Digitaria sanguinalis); conditions: Postemergence
Procedure, shortened: as §1

[12] = system: mallow (common mallow, Malva sylvestris); conditions: Postemergence
Procedure, shortened: as §1

[13] = system: morningglory (pitted morningglory, Ipomoea lacunosa); conditions: Postemergence
Procedure, shortened: as §1

[14] = system: nutsedge (purple nutsedge, Cyperus rotundus); conditions: Postemergence
Procedure, shortened: as §1

[15] = system: quackgrass (Elytrigia repens); conditions: Postemergence
Procedure, shortened: as §1

[16] = system: sandbur (southern sandbur, Cenchrus echinatus); conditions: Postemergence
Procedure, shortened: as §1

[17] = system: signalgrass (broadleaf signalgrass, Brachiaria platyphylla); conditions: Postemergence
Procedure, shortened: as §1

[18] = system: sowthistle (common sowthistle, Sonchus oleraceous); conditions: Postemergence
Procedure, shortened: as §1

[19] = 62 g ai/ha, scale 0 to 100 (0 no effect, 100 complete control)
[20] = 125 g ai/ha, scale 0 to 100 (0 no effect, 100 complete control)
[21] = 250 g ai/ha, scale 0 to 100 (0 no effect, 100 complete control)

SMILES: COCCn1c(-c2cccc(F)c2)ncc(C(=O)C2=C(O)C3CCC(C3)C2=O)c1=O (centres unmarked) [Compound 235]
- Plant response rating, Surinam Grass ([1]; 31 g ai/ha, scale 0 to 100): 75
- Plant response rating, Surinam Grass [1, 19]: 75
- Plant response rating, Surinam Grass [1, 20]: 75
- Plant response rating, Surinam Grass [1, 21]: 85
- Plant response rating, Bermudagrass ([2]; 31 g ai/ha): 80
- Plant response rating, Bermudagrass ([2]; 62 g ai/ha): 95
- Plant response rating, Bermudagrass ([2]; 125 g ai/ha): 95
- Plant response rating, Bermudagrass ([2]; 250 g ai/ha): 95
- Plant response rating, Black Mustard ([3]; 31 g ai/ha): 80
- Plant response rating, Black Mustard ([3]; 62 g ai/ha): 80
- Plant response rating, Black Mustard ([3]; 125 g ai/ha): 98
- Plant response rating, Black Mustard ([3]; 250 g ai/ha): 98
- Plant response rating, Bluegrass ([4]; 31 g ai/ha): 5
- Plant response rating, Bluegrass ([4]; 62 g ai/ha): 20
- Plant response rating, Bluegrass ([4]; 125 g ai/ha): 35
- Plant response rating, Bluegrass ([4]; 250 g ai/ha): 50
- Plant response rating, Dayflower, VA ([5]; 31 g ai/ha, scale 0 to 100): 60
- Plant response rating, Dayflower, VA [5, 19]: 70
- Plant response rating, Dayflower, VA [5, 20]: 75
- Plant response rating, Dayflower, VA [5, 21]: 75
- Plant response rating, Field Bindweed ([6]; 31 g ai/ha, scale 0 to 100): 60
- Plant response rating, Field Bindweed [6, 19]: 65
- Plant response rating, Field Bindweed [6, 20]: 65
- Plant response rating, Field Bindweed [6, 21]: 70
- Plant response rating, Goosegrass ([7]; 31 g ai/ha, scale 0 to 100): 75
- Plant response rating, Goosegrass [7, 19]: 75
- Plant response rating, Goosegrass [7, 20]: 75
- Plant response rating, Goosegrass [7, 21]: 75
- Plant response rating, Foxtail, Green ([8]; 31 g ai/ha, scale 0 to 100): 70
- Plant response rating, Foxtail, Green [8, 19]: 95
- Plant response rating, Foxtail, Green [8, 20]: 98
- Plant response rating, Foxtail, Green [8, 21]: 98
- Plant response rating, Groundsel ([9]; 31 g ai/ha, scale 0 to 100): 100
- Plant response rating, Groundsel [9, 19]: 100
- Plant response rating, Groundsel [9, 20]: 100
- Plant response rating, Groundsel [9, 21]: 100
- Plant response rating, Itchgrass ([10]; 31 g ai/ha, scale 0 to 100): 70
- Plant response rating, Itchgrass [10, 19]: 75
- Plant response rating, Itchgrass [10, 20]: 80
- Plant response rating, Itchgrass [10, 21]: 90
- Plant response rating, Crabgrass, Large ([11]; 31 g ai/ha, scale 0 to 100): 70
- Plant response rating, Crabgrass, Large [11, 19]: 75
- Plant response rating, Crabgrass, Large [11, 20]: 75
- Plant response rating, Crabgrass, Large [11, 21]: 80
- Plant response rating, Mallow ([12]; 31 g ai/ha, scale 0 to 100): 10
- Plant response rating, Mallow [12, 19]: 50
- Plant response rating, Mallow [12, 20]: 70
- Plant response rating, Mallow [12, 21]: 70
- Plant response rating, Morningglory ([13]; 31 g ai/ha, scale 0 to 100): 75
- Plant response rating, Morningglory [13, 19]: 75
- Plant response rating, Morningglory [13, 20]: 95
- Plant response rating, Morningglory [13, 21]: 95
- Plant response rating, Nutsedge, Purple ([14]; 31 g ai/ha, scale 0 to 100): 5
- Plant response rating, Nutsedge, Purple [14, 19]: 5
- Plant response rating, Nutsedge, Purple [14, 20]: 30
- Plant response rating, Nutsedge, Purple [14, 21]: 40
- Plant response rating, Quackgrass ([15]; 31 g ai/ha, scale 0 to 100): 5
- Plant response rating, Quackgrass [15, 19]: 30
- Plant response rating, Quackgrass [15, 20]: 40
- Plant response rating, Quackgrass [15, 21]: 70
- Plant response rating, Sandbur ([16]; 31 g ai/ha, scale 0 to 100): 75
- Plant response rating, Sandbur [16, 19]: 75
- Plant response rating, Sandbur [16, 20]: 75
- Plant response rating, Sandbur [16, 21]: 75
- Plant response rating, Signalgrass ([17]; 31 g ai/ha, scale 0 to 100): 65
- Plant response rating, Signalgrass [17, 19]: 90
- Plant response rating, Signalgrass [17, 20]: 90
- Plant response rating, Signalgrass [17, 21]: 95
- Plant response rating, Sowthistle ([18]; 31 g ai/ha, scale 0 to 100): 98
- Plant response rating, Sowthistle [18, 19]: 98
- Plant response rating, Sowthistle [18, 20]: 98
- Plant response rating, Sowthistle [18, 21]: 98

SMILES: COCCCn1c(-c2cccc(F)c2)ncc(C(=O)C2=C(O)C3CCC(C3)C2=O)c1=O (centres unmarked) [Compound 238]
- Plant response rating, Surinam Grass ([1]; 31 g ai/ha, scale 0 to 100): 75
- Plant response rating, Surinam Grass [1, 19]: 75
- Plant response rating, Surinam Grass [1, 20]: 75
- Plant response rating, Surinam Grass [1, 21]: 85
- Plant response rating, Bermudagrass ([2]; 31 g ai/ha): 80
- Plant response rating, Bermudagrass ([2]; 62 g ai/ha): 90
- Plant response rating, Bermudagrass ([2]; 125 g ai/ha): 95
- Plant response rating, Bermudagrass ([2]; 250 g ai/ha): 95
- Plant response rating, Black Mustard ([3]; 31 g ai/ha): 80
- Plant response rating, Black Mustard ([3]; 62 g ai/ha): 95
- Plant response rating, Black Mustard ([3]; 125 g ai/ha): 98
- Plant response rating, Black Mustard ([3]; 250 g ai/ha): 98
- Plant response rating, Bluegrass ([4]; 31 g ai/ha): 0
- Plant response rating, Bluegrass ([4]; 62 g ai/ha): 5
- Plant response rating, Bluegrass ([4]; 125 g ai/ha): 20
- Plant response rating, Bluegrass ([4]; 250 g ai/ha): 40
- Plant response rating, Dayflower, VA ([5]; 31 g ai/ha, scale 0 to 100): 35
- Plant response rating, Dayflower, VA [5, 19]: 65
- Plant response rating, Dayflower, VA [5, 20]: 70
- Plant response rating, Dayflower, VA [5, 21]: 75
- Plant response rating, Field Bindweed ([6]; 31 g ai/ha, scale 0 to 100): 35
- Plant response rating, Field Bindweed [6, 19]: 50
- Plant response rating, Field Bindweed [6, 21]: 50
- Plant response rating, Goosegrass ([7]; 31 g ai/ha, scale 0 to 100): 50
- Plant response rating, Goosegrass [7, 19]: 70
- Plant response rating, Goosegrass [7, 20]: 75
- Plant response rating, Goosegrass [7, 21]: 75
- Plant response rating, Foxtail, Green ([8]; 31 g ai/ha, scale 0 to 100): 75
- Plant response rating, Foxtail, Green [8, 19]: 80
- Plant response rating, Foxtail, Green [8, 20]: 80
- Plant response rating, Foxtail, Green [8, 21]: 95
- Plant response rating, Groundsel ([9]; 31 g ai/ha, scale 0 to 100): 100
- Plant response rating, Groundsel [9, 19]: 100
- Plant response rating, Groundsel [9, 20]: 100
- Plant response rating, Groundsel [9, 21]: 100
- Plant response rating, Itchgrass ([10]; 31 g ai/ha, scale 0 to 100): 70
- Plant response rating, Itchgrass [10, 19]: 70
- Plant response rating, Itchgrass [10, 20]: 75
- Plant response rating, Itchgrass [10, 21]: 80
- Plant response rating, Crabgrass, Large ([11]; 31 g ai/ha, scale 0 to 100): 50
- Plant response rating, Crabgrass, Large [11, 19]: 70
- Plant response rating, Crabgrass, Large [11, 20]: 75
- Plant response rating, Crabgrass, Large [11, 21]: 80
- Plant response rating, Mallow ([12]; 31 g ai/ha, scale 0 to 100): 25
- Plant response rating, Mallow [12, 19]: 35
- Plant response rating, Mallow [12, 20]: 50
- Plant response rating, Mallow [12, 21]: 60
- Plant response rating, Morningglory ([13]; 31 g ai/ha, scale 0 to 100): 70
- Plant response rating, Morningglory [13, 19]: 80
- Plant response rating, Morningglory [13, 20]: 80
- Plant response rating, Morningglory [13, 21]: 90
- Plant response rating, Nutsedge, Purple ([14]; 31 g ai/ha, scale 0 to 100): 5
- Plant response rating, Nutsedge, Purple [14, 19]: 10
- Plant response rating, Nutsedge, Purple [14, 20]: 20
- Plant response rating, Nutsedge, Purple [14, 21]: 20
- Plant response rating, Quackgrass ([15]; 31 g ai/ha, scale 0 to 100): 5
- Plant response rating, Quackgrass [15, 19]: 5
- Plant response rating, Quackgrass [15, 20]: 30
- Plant response rating, Quackgrass [15, 21]: 40
- Plant response rating, Sandbur ([16]; 31 g ai/ha, scale 0 to 100): 50
- Plant response rating, Sandbur [16, 19]: 75
- Plant response rating, Sandbur [16, 20]: 75
- Plant response rating, Sandbur [16, 21]: 85
- Plant response rating, Signalgrass ([17]; 31 g ai/ha, scale 0 to 100): 20
- Plant response rating, Signalgrass [17, 19]: 35
- Plant response rating, Signalgrass [17, 20]: 60
- Plant response rating, Signalgrass [17, 21]: 65
- Plant response rating, Sowthistle ([18]; 31 g ai/ha, scale 0 to 100): 95
- Plant response rating, Sowthistle [18, 19]: 95
- Plant response rating, Sowthistle [18, 20]: 95
- Plant response rating, Sowthistle [18, 21]: 95
